Legend:
[1] = test system: liver ApoB mRNA; test: Liver ApoB mRNA knockdown by 1:57 SNALP with APOB siRNA in mice; format: in vivo, mouse; conditions: for ApoB knockdown: similar study with 1:57 SNALP containing C2-TLinDMA (Example 16); for ApoB silencing activity (liver ApoB mRNA): 6:1 L:D, IV 0.1 mg/kg
Protocol: Each SNALP formulation was administered by intravenous (IV) injection at 0.1 mg/kg into female Balb/c mice (n=3 per group). Plasma total cholesterol and/or liver ApoB mRNA levels were evaluated at 48 hours after SNALP administration. For dose response studies, SNALP formulations were administered by IV injection at 0.01 mg/kg, 0.03 mg/kg, or 0.1 mg/kg into female Balb/c mice (n=3 per group). Liver ApoB mRNA levels were evaluated at 48 hours after SNALP administration.
1:57 SNALP formulations containing encapsulated APOB siRNA at a 6:1 lipid:drug (L:D) ratio were prepared with the following cationic lipids: (1) DLinDMA; (2) Linoleyl/Linolenyl DMA (“Lin/LenDMA”); (3) DPanDMA; (4) TLinDMA; (5) Linoleyl/C6:0 DMA (“Lin/6:0”); (6) C2-DPanDMA; (7) DLin-C2K-Pip (30H); and (8) DHep-C2K-DMA.
(§1) Each SNALP formulation was administered by intravenous (IV) injection at 0.1 mg/kg into female Balb/c mice (n=3 per group). Livers were colleted at 48 hours after SNALP administration and liver ApoB mRNA levels were evaluated by performing an ApoB/GAPDH QG assay. Table 2 provides a characterization of the SNALP formulations used in this in vivo study.
In another study, 1:57 SNALP formulations containing encapsulated APOB siRNA at a 6:1 L:D ratio were prepared with the following cationic lipids: (1) DLinDMA; (2) C2-DPanDMA; (3) DPan-C2K-DMA; (4) DPan-C3K-DMA; and (5) DPan-C1K6-DMA.
as §1, with “3” for “2”
For dose response studies, SNALP formulations were administered by IV injection at 0.01 mg/kg, 0.033 mg/kg, or 0.1 mg/kg into female Balb/c mice (n=3 per group). Liver ApoB mRNA levels were evaluated at 48 hours after SNALP administration by a branched DNA assay (QuantiGene assay) to assess ApoB mRNA relative to the housekeeping gene GAPDH.

[2] = TNS assay, apparent pKa of cationic lipid in 1:57 SNALP; conditions: 1:57 SNALP formulation containing encapsulated APOB siRNA
Protocol: 1:57 SNALP formulations containing encapsulated APOB siRNA were prepared as described in Section VI above with the following cationic lipids: (1) DLinDMA; (2) DLenDMA; (3) γ-DLenDMA (“g-DLenDMA”); (4) C2-DLinDAP; (5) DLinPip (4-OH); (6) DLinPip; (7) DLinPip (3-OH); (8) DLinDEA; (9) DDocDMA; (10) DAraDMA; (11) TLinDMA; (12) DLin-C2K Pip (30H); (13) DHep-C2K-DMA; (14) DPanDMA; (15) C2-DPanDMA (“DPan-C2-DMA”); (16) DPan-C2K-DMA; (17) DPan-C3K-DMA; (18) DPan-K6-DMA (“DPan-C1K6-DMA”); and (19) C2-TLinDMA.
The apparent pKa of the cationic lipids present in these SNALP formulations was determined using a 2-(p-toluidinyl)-naphthalene-6-sodium sulfonate (TNS) assay. TNS is a negatively-charged indicator of membrane potential that is electrostatically attracted to positively charged membranes (see, Bailey and Cullis, Biochemistry, 33 12573-80 (1994)). Subsequent adsorption to the lipid membrane results in the immediate environment of the TNS becoming more lipophilic, removing the water molecules that otherwise quench TNS fluorescence. As a result, TNS measures the surface potential of the particle, wherein the more positive the surface potential, the greater the level of fluorescence. The surface pKa values of each SNALP formulation were determined by varying the local pH in the presence of TNS. By plotting fluorescence versus pH, the pKa of the cationic lipid can be estimated in the particle as the pH where fluorescence equals 50% of total fluorescence.

[3] = Tolerability of 1:57 SNALP, liver enzyme levels; format: in vivo, mouse; conditions: FIG. 7, single IV bolus 10, 15 or 20 mg/kg, Balb/c mice, 48 hours post-injection, vs PBS control
Protocol: The tolerability of the 1:57 γ-DLenDMA SNALP formulation was evaluated with a single IV bolus injection of SNALP at either 10 mg/kg, 15 mg/kg, or 20 mg/kg in Balb/c mice (n=3 per group). Liver enzyme levels were measured at 48 hours post-injection.

[4] = test system: ApoB mRNA in ApoE−/− primary hepatocytes; test: ApoB silencing in ApoE−/− primary hepatocytes after serum pre-incubation of SNALP; format: cell-based, mouse; conditions: FIGS. 12-14; 1:57 SNALP pre-incubated with C57 or ApoE−/− serum, 40-0.625 nM siRNA on hepatocytes, 24 hr
Protocol: ApoE−/− primary hepatocytes were isolated and plated at 2.5×10^4 cells/well. Each SNALP formulation was pre-incubated with 50% C57 (ApoE-containing) serum or ApoE−/− serum at siRNA concentrations of 4000-62.5 nM for 1 hr at 37° C. Samples were then diluted to 40-0.625 nM on the hepatocytes for 24 hr. After 24 hr, cells were lysed and ApoB and GAPD mRNA levels were measured via bDNA (QG) assay.

[5] = Characterization of SNALP formulations (size, polydispersity, encapsulation); format: physicochemical; conditions: Table 5; for Initial Encaps. (%): 7:54 SNALP (PEG750-C-DMA 6.76 | cationic 54.06 | Chol 32.43 | DPPC 6.75 mol %) with PLK-1 siRNA; for Finished Product Encaps. (%) / Finished Product Poly / Finished Product Z-Avg (nm): 7:54 SNALP with PLK-1 siRNA
Protocol: In the context of nucleic acids, full encapsulation may be determined by performing a membrane-impermeable fluorescent dye exclusion assay, which uses a dye that has enhanced fluorescence when associated with nucleic acid. Specific dyes such as OliGreen® and RiboGreen® (Invitrogen Corp.; Carlsbad, Calif.) are available for the quantitative determination of plasmid DNA, single-stranded deoxyribonucleotides, and/or single- or double-stranded ribonucleotides. Encapsulation is determined by adding the dye to a liposomal formulation, measuring the resulting fluorescence, and comparing it to the fluorescence observed upon addition of a small amount of nonionic detergent. Detergent-mediated disruption of the liposomal bilayer releases the encapsulated nucleic acid, allowing it to interact with the membrane-impermeable dye. Nucleic acid encapsulation may be calculated as E=(Io−I)Io, where I and Io refer to the fluorescence intensities before and after the addition of detergent (see, Wheeler et al., Gene Ther., 6:271-281 (1999)). […]
Each SNALP formulation was administered by intravenous (IV) injection at 3 mg/kg into Scid mice containing Hep3B tumors (n=4 per group). Tumor tissue was colleted at 24 hours after SNALP administration and tumor PLK-1 mRNA levels were evaluated by performing a PLK-1/GAPDH QG assay. Table 5 provides a characterization of the SNALP formulations used in this in vivo study.

[6] = Example 16, FIG. 8, 1:57 SNALP, female Balb/c mice, 48 hours, ApoB/GAPDH QG assay
[7] = Example 16 second study, FIG. 9, 1:57 SNALP, female Balb/c mice, 48 hours

SMILES | pKa [2] | Initial Encaps. (%) [5] [%] | Finished Product Encaps. (%) [5] [%] | Finished Product Poly [5] | Finished Product Z-Avg (nm) [5] [nm] | other results
CCCCC/C=C\C/C=C\CCCCCCCCOCC(COCC(CCN(C)C)OCCCCCCCC/C=C\C/C=C\CCCCC)OCCCCCCCC/C=C\C/C=C\CCCCC (stereo not drawn) [Compound C2-TLinDMA] | ~5.85 | – | – | – | – | ApoB knockdown [1]: 49%
CCCCC/C=C\C/C=C\C/C=C\C/C=C\CCCCOCC(CN(C)C)OCCCC/C=C\C/C=C\C/C=C\C/C=C\CCCCC (stereo not drawn) [DAraDMA, 1,2-Diarachidonyloxy-(N,N-dimethyl)-propyl-3-amine] | ~5.65 | – | – | – | – | –
CC/C=C\C/C=C\C/C=C\C/C=C\C/C=C\C/C=C\CCCOCC(CN(C)C)OCCC/C=C\C/C=C\C/C=C\C/C=C\C/C=C\C/C=C\CC (stereo not drawn) [DDocDMA, 1,2-Didocosahexaenyloxy-(N,N-dimethyl)-propyl-3-amine] | ~5.65 | – | – | – | – | –
CCCCCCCC/C=C/CCCCCCCC1(CCCCCCC/C=C/CCCCCCCC)OCC(CCN(C)C)O1 (stereo not drawn) [DHep-C2K-DMA] | ~6.05 | – | – | – | – | ApoB silencing activity (liver ApoB mRNA) [1, 6]: comparable to DLinDMA with respect to silencing activity
CC/C=C\C/C=C\C/C=C\CCCCCCCCC1(CCCCCCCC/C=C\C/C=C\C/C=C\CC)OCC(CCN(C)C)O1 (stereo not drawn) [DLen-C2K-DMA] | – | – | – | – | – | liver ApoB mRNA knockdown activity ([1]; Example 17, FIG. 10, 1:57 SNALP, IV 0.01, 0.033 or 0.1 mg/kg, female Balb/c mice, 48 hours, QuantiGene assay vs GAPDH): considerable potency in silencing ApoB mRNA expression
CC/C=C\C/C=C\C/C=C\CCCCCCCCOCC(CN(C)C)OCCCCCCCC/C=C\C/C=C\C/C=C\CC (stereo not drawn) [DLenDMA, 1,2-dilinolenyloxy-N,N-dimethylaminopropane, reference compound] | – | – | – | – | – | liver enzyme levels [3]: did not significantly elevate liver enzyme levels; ApoB silencing activity and its dependence on ApoE [4]: greatest levels of silencing activity when ApoE-containing serum was present
CCCCC/C=C\C/C=C\CCCCCCCCC1(CCCCCCCC/C=C\C/C=C\CCCCC)OCC(CN(C)C)O1 (stereo not drawn) [DLin-C1K-DMA, reference compound] | – | 56 | 98 | 0.05 | 84 | –
CCCCC/C=C\C/C=C\CCCCCCCCC1(CCCCCCCC/C=C\C/C=C\CCCCC)OCC(CCN2CCCC(O)C2)O1 (stereo not drawn) [DLin-C2K Pip (30H)] | ~6.05 | – | – | – | – | –
CCCCC/C=C\C/C=C\CCCCCCCCC1(CCCCCCCC/C=C\C/C=C\CCCCC)OCC(CCCN(C)C)O1 (stereo not drawn) [DLin-C3K-DMA] | – | – | – | – | – | ApoB silencing activity and its dependence on ApoE [4]: less dependent on ApoE compared to other formulations tested
CCCCCC=CCC=CCCCCCCCCC1(CCCCCCCC/C=C\C/C=C\CCCCC)OCC(CCCCN(C)C)O1 (stereo not drawn) [DLin-C4K-DMA] | – | – | – | – | – | ApoB silencing activity and its dependence on ApoE [4]: less dependent on ApoE compared to other formulations tested
CCCCC/C=C\C/C=C\CCCCCCCCOCC(CN(C)C)OCCCCCCCC/C=C\C/C=C\CCCCC (stereo not drawn) [DLinDMA, 1,2-dilinoleyloxy-N,N-dimethylaminopropane, reference compound] | – | 75 | 98 | 0.08 | 74 | ApoB knockdown [1]: 25%
CC(C)CCCC(C)CCCC(C)CCCC(C)CCC1(CCC(C)CCCC(C)CCCC(C)CCCC(C)C)OCC(CN(C)C)CO1 (stereo not drawn) [DPan-C1K6-DMA] | ~5.5 | 71 | 99 | 0.06 | 80 | –
CC(C)CCCC(C)CCCC(C)CCCC(C)CCC1(CCC(C)CCCC(C)CCCC(C)CCCC(C)C)OCC(CCN(C)C)O1 (stereo not drawn) [DPan-C2K-DMA] | ~5.95 | 84 | 100 | 0.08 | 76 | ApoB silencing activity (liver ApoB mRNA) [1, 7]: more potent compared to DLinDMA
CC(C)CCCC(C)CCCC(C)CCCC(C)CCC1(CCC(C)CCCC(C)CCCC(C)CCCC(C)C)OCC(CCCN(C)C)O1 (stereo not drawn) [DPan-C3K-DMA] | ~6.25 | 86 | 100 | 0.06 | 81 | ApoB silencing activity (liver ApoB mRNA) [1, 7]: more potent compared to DLinDMA
CC/C=C\C/C=C\C/C=C\CCCCCCCCOC(COCCCCCCCC/C=C\C/C=C\CCCCC)CN(C)C (stereo not drawn) [Linoleyl/Linolenyl DMA] | – | – | – | – | – | liver ApoB mRNA knockdown activity (silencing ApoB expression) ([1]; Example 14, FIGS. 3-6, 1:57 SNALP with APOB siRNA, IV 0.1 mg/kg (dose response 0.01, 0.03, 0.1 mg/kg), female Balb/c mice, 48 hours): greater ApoB silencing activity compared to a SNALP formulation containing DLinDMA; ApoB silencing activity (liver ApoB mRNA) [1, 6]: more potent silencing activity than DLinDMA
CCCCC/C=C\C/C=C\CCCCCCCCOCC(COCC(CN(C)C)OCCCCCCCC/C=C\C/C=C\CCCCC)OCCCCCCCC/C=C\C/C=C\CCCCC (stereo not drawn) [TLinDMA, 1-(2,3-linoleyloxypropoxy)-2-(linoleyloxy)-(N,N-dimethyl)-propyl-3-amine] | ~5.35 | 70 | 100 | 0.07 | 126 | ApoB silencing activity (liver ApoB mRNA) [1, 6]: silencing activity that was comparable to DLinDMA
CCCCC/C=C\C/C=C\C/C=C\CCCCCC1(CCCCC/C=C\C/C=C\C/C=C\CCCCC)OCC(CCN(C)C)O1 (stereo not drawn) [g-DLen-C2K-DMA] | – | – | – | – | – | KD50 value ([1]; Example 17, FIG. 10, liver ApoB mRNA knockdown dose response): identical KD50 value compared to a SNALP formulation containing C2K
CCCCC/C=C\C/C=C\C/C=C\CCCCCOCC(CN(C)C)OCCCCC/C=C\C/C=C\C/C=C\CCCCC (stereo not drawn) [γ-DLenDMA, 1,2-Di-γ-linolenyloxy-N,N-dimethylaminopropane] | – | – | – | – | – | liver enzyme levels [3]: did not significantly elevate liver enzyme levels

— patent publication US9018187B2, “Cationic lipids and methods for the delivery of therapeutic agents” (Protiva Biotherapeutics, Inc., priority 2009, dated 2015)
